{"source": "ChEMBL document CHEMBL5465560", "about": "“Selectivity Literature for EUbOPEN Chemogenomic Library” (2024)", "key": {"[1]": {"target": "Phosphatidylinositol 4,5-bisphosphate 3-kinase catalytic subunit beta isoform (Homo sapiens) (UniProt P42338)", "sequence (P42338 whole entry, looked up, canonical isoform)": "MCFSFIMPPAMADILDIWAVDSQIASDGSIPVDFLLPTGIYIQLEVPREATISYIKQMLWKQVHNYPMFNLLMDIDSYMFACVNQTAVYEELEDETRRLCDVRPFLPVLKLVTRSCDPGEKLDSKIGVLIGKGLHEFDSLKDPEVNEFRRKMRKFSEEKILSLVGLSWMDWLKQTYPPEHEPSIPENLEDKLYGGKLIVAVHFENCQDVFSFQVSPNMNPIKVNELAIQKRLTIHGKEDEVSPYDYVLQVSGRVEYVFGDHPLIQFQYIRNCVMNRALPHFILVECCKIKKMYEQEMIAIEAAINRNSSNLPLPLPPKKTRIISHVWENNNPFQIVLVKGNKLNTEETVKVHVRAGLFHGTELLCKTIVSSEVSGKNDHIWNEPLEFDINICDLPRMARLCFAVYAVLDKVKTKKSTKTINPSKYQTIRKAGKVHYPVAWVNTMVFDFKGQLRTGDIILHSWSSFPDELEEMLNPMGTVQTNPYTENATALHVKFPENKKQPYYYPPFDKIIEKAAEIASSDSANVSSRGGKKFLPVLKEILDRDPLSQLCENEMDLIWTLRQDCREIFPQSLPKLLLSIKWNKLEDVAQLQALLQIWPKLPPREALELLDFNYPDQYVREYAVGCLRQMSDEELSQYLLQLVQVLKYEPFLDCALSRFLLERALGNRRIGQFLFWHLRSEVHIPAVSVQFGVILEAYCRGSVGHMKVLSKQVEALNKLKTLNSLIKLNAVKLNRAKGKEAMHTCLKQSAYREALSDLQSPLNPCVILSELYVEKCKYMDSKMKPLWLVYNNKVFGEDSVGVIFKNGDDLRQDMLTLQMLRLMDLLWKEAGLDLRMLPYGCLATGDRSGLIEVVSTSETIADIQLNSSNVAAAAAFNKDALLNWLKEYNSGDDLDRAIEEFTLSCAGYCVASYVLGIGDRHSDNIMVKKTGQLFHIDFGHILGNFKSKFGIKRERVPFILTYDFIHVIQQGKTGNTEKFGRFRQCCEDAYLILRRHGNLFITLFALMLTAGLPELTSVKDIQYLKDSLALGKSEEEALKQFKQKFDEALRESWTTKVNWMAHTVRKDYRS", "experiment": "Selectivity interaction (Kinase panel (KiNativ target engagement assay in Jurkat cells)) EUB0001635a PIK3CB", "format": "cell-based", "conditions": "Selectivity number of off-targets 0.0, Selectivity number of targets 233.0, Source Knowledge https://www.sciencedirect.com/science/article/pii/S2451945619300674?via%3Dihub, at 1 µM"}, "[2]": {"target": "T1, Rhodopsin kinase GRK1 (Homo sapiens) (UniProt Q15835)", "T1 sequence (whole entry)": "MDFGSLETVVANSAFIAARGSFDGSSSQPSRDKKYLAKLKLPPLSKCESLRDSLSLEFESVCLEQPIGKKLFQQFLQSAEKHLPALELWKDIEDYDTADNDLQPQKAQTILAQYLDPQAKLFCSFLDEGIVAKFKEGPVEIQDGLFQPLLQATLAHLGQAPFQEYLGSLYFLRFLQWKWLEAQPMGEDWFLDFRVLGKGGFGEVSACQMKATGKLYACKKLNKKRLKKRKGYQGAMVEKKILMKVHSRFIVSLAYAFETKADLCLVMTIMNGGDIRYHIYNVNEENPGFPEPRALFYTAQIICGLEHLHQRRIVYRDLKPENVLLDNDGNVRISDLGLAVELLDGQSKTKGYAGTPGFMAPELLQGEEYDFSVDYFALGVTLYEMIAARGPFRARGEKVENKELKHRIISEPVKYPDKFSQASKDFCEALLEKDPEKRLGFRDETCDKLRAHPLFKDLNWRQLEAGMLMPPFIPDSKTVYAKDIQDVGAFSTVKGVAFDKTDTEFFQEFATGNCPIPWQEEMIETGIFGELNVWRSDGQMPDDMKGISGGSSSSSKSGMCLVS", "conditions": "at 10 µM"}, "[3]": {"target": "Tyrosine-protein kinase Fgr (Homo sapiens) (UniProt P09769)", "sequence (P09769 2-529 limits assumed)": "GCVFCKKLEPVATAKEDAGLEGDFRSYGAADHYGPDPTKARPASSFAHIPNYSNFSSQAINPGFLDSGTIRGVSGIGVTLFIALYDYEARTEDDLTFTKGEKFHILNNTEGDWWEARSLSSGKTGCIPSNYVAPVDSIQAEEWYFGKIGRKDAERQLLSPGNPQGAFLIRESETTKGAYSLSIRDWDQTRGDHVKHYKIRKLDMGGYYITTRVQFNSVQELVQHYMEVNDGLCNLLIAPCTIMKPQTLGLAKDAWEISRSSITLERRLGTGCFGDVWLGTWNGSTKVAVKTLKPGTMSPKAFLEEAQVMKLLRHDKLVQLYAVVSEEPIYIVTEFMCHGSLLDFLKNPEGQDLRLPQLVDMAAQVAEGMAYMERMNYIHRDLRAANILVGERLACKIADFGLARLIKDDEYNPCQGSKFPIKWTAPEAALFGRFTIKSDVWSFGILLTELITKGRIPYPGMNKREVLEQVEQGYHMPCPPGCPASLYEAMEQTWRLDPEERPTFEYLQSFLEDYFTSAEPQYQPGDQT", "experiment": "Selectivity interaction (ActivX KiNativ screen (kinase selectivity in THP-1 cell lysates)) EUB0000639a FGR", "format": "subcellular", "conditions": "lysate"}, "[4]": {"target": "Calcium/calmodulin-dependent protein kinase type II subunit gamma (Homo sapiens) (UniProt Q13555)", "sequence (Q13555 whole entry)": "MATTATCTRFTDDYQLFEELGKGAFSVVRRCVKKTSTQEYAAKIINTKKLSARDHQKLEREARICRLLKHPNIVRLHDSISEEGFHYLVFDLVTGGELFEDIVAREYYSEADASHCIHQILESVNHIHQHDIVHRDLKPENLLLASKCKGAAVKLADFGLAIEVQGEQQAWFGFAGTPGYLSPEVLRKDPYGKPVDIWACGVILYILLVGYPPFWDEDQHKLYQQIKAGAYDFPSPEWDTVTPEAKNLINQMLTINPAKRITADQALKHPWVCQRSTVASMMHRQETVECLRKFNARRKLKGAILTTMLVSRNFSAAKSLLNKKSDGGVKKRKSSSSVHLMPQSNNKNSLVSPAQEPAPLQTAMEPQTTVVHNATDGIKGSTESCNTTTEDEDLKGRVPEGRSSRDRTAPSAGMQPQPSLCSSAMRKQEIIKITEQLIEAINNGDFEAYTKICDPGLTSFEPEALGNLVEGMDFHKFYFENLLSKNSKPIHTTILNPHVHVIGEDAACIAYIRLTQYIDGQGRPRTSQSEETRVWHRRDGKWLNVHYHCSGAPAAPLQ", "experiment": "Selectivity interaction (KinomeScan (DiscoverX)) EUB0000229b CAMK2G", "conditions": "at 10 µM"}, "[5]": {"target": "T2, Interleukin-1 receptor-associated kinase 4 (Homo sapiens) (UniProt Q9NWZ3)", "T2 sequence (whole entry)": "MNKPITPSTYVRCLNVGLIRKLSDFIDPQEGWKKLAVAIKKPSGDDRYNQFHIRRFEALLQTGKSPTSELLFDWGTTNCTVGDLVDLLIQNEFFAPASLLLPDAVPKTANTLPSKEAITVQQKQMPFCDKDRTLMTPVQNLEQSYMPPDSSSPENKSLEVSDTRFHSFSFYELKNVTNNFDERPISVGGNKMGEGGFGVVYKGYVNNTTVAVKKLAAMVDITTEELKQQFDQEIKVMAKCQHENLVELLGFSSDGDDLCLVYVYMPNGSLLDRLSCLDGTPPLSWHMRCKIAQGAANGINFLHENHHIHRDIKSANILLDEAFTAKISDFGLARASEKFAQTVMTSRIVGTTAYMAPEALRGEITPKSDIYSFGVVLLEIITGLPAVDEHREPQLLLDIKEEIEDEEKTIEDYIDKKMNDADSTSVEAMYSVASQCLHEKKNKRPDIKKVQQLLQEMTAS", "experiment": "Selectivity interaction (KinomeScan (DiscoverX)) EUB0000229b IRAK4", "conditions": "at 10 µM"}, "[6]": {"tested_on": "Epidermal growth factor receptor (Homo sapiens), P00533 [UNDEFINED MUTATION]", "sequence (P00533 whole entry, looked up, change not shown)": "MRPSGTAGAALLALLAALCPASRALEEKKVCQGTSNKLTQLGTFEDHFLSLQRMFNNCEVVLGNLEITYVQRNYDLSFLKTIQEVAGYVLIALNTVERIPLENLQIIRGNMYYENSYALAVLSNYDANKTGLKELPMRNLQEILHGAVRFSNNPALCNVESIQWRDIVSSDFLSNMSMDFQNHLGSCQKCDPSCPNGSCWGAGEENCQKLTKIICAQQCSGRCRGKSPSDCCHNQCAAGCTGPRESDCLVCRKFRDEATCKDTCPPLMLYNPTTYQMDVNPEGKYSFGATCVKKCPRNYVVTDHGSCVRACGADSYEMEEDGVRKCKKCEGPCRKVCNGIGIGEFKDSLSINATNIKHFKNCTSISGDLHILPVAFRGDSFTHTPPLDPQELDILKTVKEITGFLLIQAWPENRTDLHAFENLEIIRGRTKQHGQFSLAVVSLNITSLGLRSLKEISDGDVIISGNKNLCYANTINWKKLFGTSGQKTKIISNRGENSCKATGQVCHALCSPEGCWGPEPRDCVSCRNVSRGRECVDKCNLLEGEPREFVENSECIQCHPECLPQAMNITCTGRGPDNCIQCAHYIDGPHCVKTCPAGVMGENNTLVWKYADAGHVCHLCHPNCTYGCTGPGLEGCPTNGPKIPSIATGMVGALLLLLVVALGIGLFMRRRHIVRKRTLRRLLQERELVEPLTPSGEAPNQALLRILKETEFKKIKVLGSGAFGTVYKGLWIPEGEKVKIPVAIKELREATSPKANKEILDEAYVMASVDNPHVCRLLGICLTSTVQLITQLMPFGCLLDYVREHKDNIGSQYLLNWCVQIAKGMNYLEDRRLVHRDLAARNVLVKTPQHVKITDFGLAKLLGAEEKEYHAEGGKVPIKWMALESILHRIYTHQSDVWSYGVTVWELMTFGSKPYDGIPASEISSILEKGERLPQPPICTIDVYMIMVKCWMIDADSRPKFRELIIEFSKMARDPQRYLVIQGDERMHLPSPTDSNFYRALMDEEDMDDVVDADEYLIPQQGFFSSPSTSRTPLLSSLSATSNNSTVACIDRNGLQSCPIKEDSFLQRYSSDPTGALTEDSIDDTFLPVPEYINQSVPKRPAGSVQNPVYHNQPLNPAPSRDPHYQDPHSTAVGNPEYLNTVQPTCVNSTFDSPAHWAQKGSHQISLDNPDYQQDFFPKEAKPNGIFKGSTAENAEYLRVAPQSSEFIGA", "experiment": "Selectivity interaction (ProQinase) EUB0000171b EGFR", "conditions": "at 1 µM"}, "[7]": {"target": "High affinity nerve growth factor receptor (Homo sapiens, UniProt P04629)", "experiment": "Selectivity interaction (KinomeScan (DiscoverX)) EUB0001049a NTRK1", "conditions": "at 1 µM"}, "[8]": {"target": "T3, Serine/threonine-protein kinase LATS2 (Homo sapiens) (UniProt Q9NRM7)", "T3 sequence (whole entry)": "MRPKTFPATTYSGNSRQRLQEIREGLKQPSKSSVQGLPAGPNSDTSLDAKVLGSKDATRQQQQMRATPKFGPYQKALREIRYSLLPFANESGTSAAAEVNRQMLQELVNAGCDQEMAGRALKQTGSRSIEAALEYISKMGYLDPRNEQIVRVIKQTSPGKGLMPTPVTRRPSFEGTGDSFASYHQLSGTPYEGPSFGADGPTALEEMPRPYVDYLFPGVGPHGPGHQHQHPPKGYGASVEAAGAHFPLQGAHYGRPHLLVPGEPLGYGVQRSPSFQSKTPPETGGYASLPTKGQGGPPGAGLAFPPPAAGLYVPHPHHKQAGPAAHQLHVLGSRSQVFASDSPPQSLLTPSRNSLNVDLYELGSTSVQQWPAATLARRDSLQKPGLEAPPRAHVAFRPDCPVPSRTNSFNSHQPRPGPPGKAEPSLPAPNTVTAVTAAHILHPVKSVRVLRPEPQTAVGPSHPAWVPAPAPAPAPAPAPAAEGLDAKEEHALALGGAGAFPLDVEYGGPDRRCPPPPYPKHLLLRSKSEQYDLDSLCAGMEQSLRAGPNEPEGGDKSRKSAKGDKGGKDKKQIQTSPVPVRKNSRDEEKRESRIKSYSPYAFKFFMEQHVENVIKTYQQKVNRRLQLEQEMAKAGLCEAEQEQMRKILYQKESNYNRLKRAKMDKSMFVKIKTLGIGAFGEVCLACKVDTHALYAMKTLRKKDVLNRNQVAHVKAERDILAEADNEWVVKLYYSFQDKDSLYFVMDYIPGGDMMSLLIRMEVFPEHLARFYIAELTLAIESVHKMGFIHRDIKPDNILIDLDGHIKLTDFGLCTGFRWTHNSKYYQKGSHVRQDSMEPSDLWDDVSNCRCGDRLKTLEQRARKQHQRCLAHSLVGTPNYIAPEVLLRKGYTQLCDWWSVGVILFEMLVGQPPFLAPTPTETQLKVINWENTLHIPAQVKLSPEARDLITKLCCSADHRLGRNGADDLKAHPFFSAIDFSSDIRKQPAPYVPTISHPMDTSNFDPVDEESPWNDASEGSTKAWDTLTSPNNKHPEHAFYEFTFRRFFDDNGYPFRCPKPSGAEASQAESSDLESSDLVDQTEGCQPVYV", "experiment": "Selectivity interaction (KinomeScan (DiscoverX)) EUB0001049a LATS2", "conditions": "at 1 µM"}, "[9]": {"target": "Mitogen-activated protein kinase 9 (Homo sapiens, UniProt P45984)", "sequence (P45984 whole entry, looked up)": "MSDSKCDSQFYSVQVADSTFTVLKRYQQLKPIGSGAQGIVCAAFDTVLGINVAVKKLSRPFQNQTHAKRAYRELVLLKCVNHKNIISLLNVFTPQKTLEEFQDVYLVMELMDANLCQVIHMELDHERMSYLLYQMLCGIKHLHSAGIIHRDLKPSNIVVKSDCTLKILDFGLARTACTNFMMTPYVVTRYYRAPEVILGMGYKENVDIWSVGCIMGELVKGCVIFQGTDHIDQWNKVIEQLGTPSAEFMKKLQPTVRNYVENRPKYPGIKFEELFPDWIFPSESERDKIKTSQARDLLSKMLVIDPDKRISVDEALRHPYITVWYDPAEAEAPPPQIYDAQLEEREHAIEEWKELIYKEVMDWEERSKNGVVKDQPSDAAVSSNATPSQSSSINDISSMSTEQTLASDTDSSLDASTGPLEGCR", "experiment": "Selectivity interaction (LanthaScreen Eu Kinase Binding Assay) EUB0001632a MAPK9", "conditions": "at 10 µM"}, "[10]": {"target": "Mitogen-activated protein kinase 7 (Homo sapiens) (UniProt Q13164)", "sequence (Q13164 2-816 limits assumed)": "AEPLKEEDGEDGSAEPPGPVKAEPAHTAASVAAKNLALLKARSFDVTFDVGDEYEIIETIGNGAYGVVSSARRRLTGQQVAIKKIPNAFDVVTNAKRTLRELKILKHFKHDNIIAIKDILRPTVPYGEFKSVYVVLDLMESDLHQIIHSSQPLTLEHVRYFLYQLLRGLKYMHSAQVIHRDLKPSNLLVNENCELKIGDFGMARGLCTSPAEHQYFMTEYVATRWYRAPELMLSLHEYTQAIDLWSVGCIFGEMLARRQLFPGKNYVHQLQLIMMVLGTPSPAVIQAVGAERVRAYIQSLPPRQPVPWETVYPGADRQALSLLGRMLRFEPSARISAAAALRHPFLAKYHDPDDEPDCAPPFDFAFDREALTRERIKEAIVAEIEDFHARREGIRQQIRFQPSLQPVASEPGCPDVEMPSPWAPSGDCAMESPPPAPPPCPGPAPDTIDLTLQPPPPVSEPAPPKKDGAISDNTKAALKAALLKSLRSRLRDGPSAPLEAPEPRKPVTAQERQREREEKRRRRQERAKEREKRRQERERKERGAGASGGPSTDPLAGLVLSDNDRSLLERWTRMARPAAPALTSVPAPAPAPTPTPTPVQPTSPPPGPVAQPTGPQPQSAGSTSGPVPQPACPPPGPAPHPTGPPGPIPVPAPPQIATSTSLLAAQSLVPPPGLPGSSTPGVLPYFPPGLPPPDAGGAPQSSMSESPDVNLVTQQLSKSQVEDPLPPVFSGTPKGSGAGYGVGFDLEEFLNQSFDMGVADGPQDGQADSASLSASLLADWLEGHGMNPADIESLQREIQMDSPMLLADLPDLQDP", "experiment": "Selectivity interaction (Rxn Biology Kinase assay) EUB0001632a MAPK7", "conditions": "at 10 µM"}, "[11]": {"target": "Homeodomain-interacting protein kinase 2 (Homo sapiens, UniProt Q9H2X6)", "experiment": "Selectivity interaction (KinomeScan (DiscoverX)) EUB0000695a HIPK2", "conditions": "at 100 nM"}}}
{"smiles": "C=CC(=O)Nc1ccc(C(=O)Nc2[nH]nc3c2CN(C(=O)N[C@H](CN(C)C)c2ccccc2)C3(C)C)cc1", "values": [{"measurement": "% of engagement", "setting": "[1]", "value": -21.2, "unit": "%"}]}
{"smiles": "Cc1cc([C@@H](C)Nc2ccccc2C(=O)O)c2nc(N3CCOCC3)cc(=O)n2c1", "note": "[AZD-6482]", "values": [{"measurement": "% of control", "setting": "[2]", "value": 100, "unit": "%"}]}
{"smiles": "CC[C@@H]1[C@H](F)C(=O)N[C@@H]1COc1nccc2cc(C(N)=O)c(OC)cc12", "note": "[ZIMLOVISERTIB]", "values": [{"measurement": "% of inhibition", "setting": "[3]; at 0.01 µM", "value": -11.8, "unit": "%"}, {"measurement": "% of inhibition", "setting": "[3]; at 0.04 µM", "value": -4.6, "unit": "%"}, {"measurement": "% of inhibition", "setting": "[3]; at 0.2 µM", "value": -12.7, "unit": "%"}, {"measurement": "% of inhibition", "setting": "[3]; at 1 µM", "value": -24.1, "unit": "%"}, {"measurement": "% of inhibition", "setting": "[3]; at 5 µM", "value": -17.9, "unit": "%"}]}
{"smiles": "COc1cc(N(C)c2ccnc3ccc(C(F)(F)F)cc23)cc(OC)c1OC", "values": [{"measurement": "% binding", "setting": "[4]", "value": 90, "unit": "%"}, {"measurement": "% binding", "setting": "[5]", "value": 85, "unit": "%"}]}
{"smiles": "C=CC(=O)Nc1cccc(C(=O)Nc2ccc(Nc3cc(-c4[nH]c(SC)nc4C)ccn3)cc2)c1", "values": [{"measurement": "% of control", "setting": "[6]", "value": 85, "unit": "%"}]}
{"smiles": "COc1cc(Nc2nc(C)cc(-c3cnn4nc(OC)ccc34)n2)cc(C(F)(F)F)c1", "values": [{"measurement": "% of control", "setting": "[7]", "value": 100, "unit": "%"}, {"measurement": "% of control", "setting": "[8]", "value": 71, "unit": "%"}]}
{"smiles": "Cn1cc(-n2cnc3c(NCc4nc5cc(Cl)c(Cl)cc5[nH]4)nc(N4CCOCC4)nc32)cn1", "values": [{"measurement": "% of inhibition", "setting": "[9]", "value": -21.2, "unit": "%"}, {"measurement": "% of inhibition", "setting": "[10]", "value": -42.4, "unit": "%"}]}
{"smiles": "Cc1cc(F)c(C(=O)Nc2cccc(-c3nncn3C(C)C)n2)cc1-n1cnc(C2CC2)c1", "values": [{"measurement": "% of control", "setting": "[11]", "value": 83, "unit": "%"}]}
